Values of other authors, collected in patent publication US7531581B2, “Method and use of acidified modified polymers to bind biocides in paints” (I-Tech AB, priority 2005, dated 2009).

Tested on: barnacles
Details: serotonin antagonists and dopamine agonists

CC(C)C[C@H]1C(=O)N2CCC[C@H]2[C@]2(O)O[C@](NC(=O)[C@@H]3C=C4c5cccc6[nH]c(Br)c(c56)C[C@H]4N(C)C3)(C(C)C)C(=O)N12 [(+)-Bromocriptine]
effect on attachment of barnacles: inhibitory properties

O=C(c1ccc(F)cc1)C1CCN(CCn2c(=O)[nH]c3ccccc3c2=O)CC1 [Ketanserin]
effect on attachment of barnacles: inhibitory properties

CCCN1CCc2cccc3c2[C@H]1Cc1ccc(O)c(O)c1-3 [R (−)-NPA]
effect on attachment of barnacles: inhibitory properties
